In patent US8003660B2, “Modulators of muscarinic receptors” (Vertex Pharmaceuticals Incorporated, priority 2006, dated 2011):
Where two headings read alike, the source gives them in different places.

Experiments:
Format in all cases: cell-based
[1] = biological target: T1, M1 muscarinic receptor (Homo sapiens, UniProt P11229); assay: Functional mobilization of intracellular calcium (FLIPR) in CHO cells expressing M1; conditions: for EC50: CHO cells expressing M1, FLIPR calcium; for Emax: CHO; for M1 Activity: CHO cells expressing M1, FLIPR calcium assay
T1 construct: expressed in transfected cells; host or cells: CHO (M1-CHO)
T1 sequence (P11229 1-460): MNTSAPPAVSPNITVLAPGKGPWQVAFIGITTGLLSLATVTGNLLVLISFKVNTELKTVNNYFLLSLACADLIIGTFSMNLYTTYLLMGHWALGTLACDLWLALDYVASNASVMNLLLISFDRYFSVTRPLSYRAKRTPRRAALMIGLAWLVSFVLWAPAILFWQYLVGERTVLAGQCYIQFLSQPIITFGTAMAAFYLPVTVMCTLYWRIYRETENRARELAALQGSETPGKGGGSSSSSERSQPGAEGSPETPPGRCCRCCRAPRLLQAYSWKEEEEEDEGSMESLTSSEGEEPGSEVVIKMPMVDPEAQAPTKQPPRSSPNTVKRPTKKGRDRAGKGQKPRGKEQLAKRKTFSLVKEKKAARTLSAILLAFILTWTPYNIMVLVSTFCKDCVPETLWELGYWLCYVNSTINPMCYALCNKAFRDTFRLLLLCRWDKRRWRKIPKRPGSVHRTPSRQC
Procedure, shortened: (§1)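 Calcium flux is read on FLIPR over 60 sec at 488/540 nm in muscarinic-receptor CHO lines. Antagonist mode adds carbachol at EC80 after 15 min compound preincubation or with simultaneous co-application. Agonist mode adds compound alone. Cells carry Fluo-3 or Calcium 3 dye in probenecid-containing pH 7.4 buffer, 0.5% DMSO final.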

[2] = biological target: T2, M2 muscarinic receptor (Homo sapiens, UniProt P08172); assay: Functional mobilization of intracellular calcium (FLIPR) in CHO cells expressing M2; conditions: for EC50: CHO cells expressing M2, FLIPR calcium; for Emax: CHO; for M2 Activity: CHO cells expressing M2, FLIPR calcium assay
T2 construct: expressed in transfected cells; host or cells: CHO (M2-CHO)
T2 sequence (P08172 1-466): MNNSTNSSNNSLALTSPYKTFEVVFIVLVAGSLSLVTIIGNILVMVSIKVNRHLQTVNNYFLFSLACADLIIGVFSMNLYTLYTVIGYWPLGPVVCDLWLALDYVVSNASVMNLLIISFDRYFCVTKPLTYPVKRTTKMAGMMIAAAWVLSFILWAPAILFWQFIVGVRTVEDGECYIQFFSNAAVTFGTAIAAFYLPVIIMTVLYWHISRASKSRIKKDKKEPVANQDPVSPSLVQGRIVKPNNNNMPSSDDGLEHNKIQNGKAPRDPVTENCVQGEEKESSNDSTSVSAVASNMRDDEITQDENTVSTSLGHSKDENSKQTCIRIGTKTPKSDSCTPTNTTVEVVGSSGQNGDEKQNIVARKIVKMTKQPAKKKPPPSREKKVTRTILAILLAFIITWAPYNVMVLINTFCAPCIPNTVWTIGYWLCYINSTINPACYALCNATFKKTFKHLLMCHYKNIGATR
Procedure, shortened: as §1

[3] = biological target: T3, M3 muscarinic receptor (Homo sapiens, UniProt P20309); assay: Functional mobilization of intracellular calcium (FLIPR) in CHO cells expressing M3; conditions: for EC50: CHO cells expressing M3, FLIPR calcium; for Emax: CHO; for M3 Activity: CHO cells expressing M3, FLIPR calcium assay
T3 construct: expressed in transfected cells; host or cells: CHO (M3-CHO)
T3 sequence (P20309 whole entry): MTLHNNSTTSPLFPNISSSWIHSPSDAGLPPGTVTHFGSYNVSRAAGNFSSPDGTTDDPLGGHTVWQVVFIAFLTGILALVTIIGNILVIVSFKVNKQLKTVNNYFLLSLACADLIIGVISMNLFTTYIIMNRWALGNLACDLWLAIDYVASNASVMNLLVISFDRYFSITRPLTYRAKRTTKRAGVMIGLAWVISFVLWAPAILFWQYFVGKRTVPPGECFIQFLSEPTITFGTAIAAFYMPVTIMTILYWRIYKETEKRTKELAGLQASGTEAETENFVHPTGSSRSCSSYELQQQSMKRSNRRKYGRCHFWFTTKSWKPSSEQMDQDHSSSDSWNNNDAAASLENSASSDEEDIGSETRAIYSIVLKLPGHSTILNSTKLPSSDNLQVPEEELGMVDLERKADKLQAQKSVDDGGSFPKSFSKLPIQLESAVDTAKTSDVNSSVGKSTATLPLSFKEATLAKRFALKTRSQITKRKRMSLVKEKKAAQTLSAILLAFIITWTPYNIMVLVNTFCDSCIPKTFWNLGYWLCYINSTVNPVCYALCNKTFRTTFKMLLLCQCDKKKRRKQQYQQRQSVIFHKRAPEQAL
Procedure, shortened: as §1

[4] = biological target: T4, M4 muscarinic receptor (Homo sapiens, UniProt P08173); assay: Functional mobilization of intracellular calcium (FLIPR) in CHO cells expressing M4; conditions: for EC50: CHO cells expressing M4, FLIPR calcium; for Emax: CHO; for M4 Activity: CHO cells expressing M4, FLIPR calcium assay
T4 construct: expressed in transfected cells; host or cells: CHO (M4-CHO)
T4 sequence (P08173 1-479): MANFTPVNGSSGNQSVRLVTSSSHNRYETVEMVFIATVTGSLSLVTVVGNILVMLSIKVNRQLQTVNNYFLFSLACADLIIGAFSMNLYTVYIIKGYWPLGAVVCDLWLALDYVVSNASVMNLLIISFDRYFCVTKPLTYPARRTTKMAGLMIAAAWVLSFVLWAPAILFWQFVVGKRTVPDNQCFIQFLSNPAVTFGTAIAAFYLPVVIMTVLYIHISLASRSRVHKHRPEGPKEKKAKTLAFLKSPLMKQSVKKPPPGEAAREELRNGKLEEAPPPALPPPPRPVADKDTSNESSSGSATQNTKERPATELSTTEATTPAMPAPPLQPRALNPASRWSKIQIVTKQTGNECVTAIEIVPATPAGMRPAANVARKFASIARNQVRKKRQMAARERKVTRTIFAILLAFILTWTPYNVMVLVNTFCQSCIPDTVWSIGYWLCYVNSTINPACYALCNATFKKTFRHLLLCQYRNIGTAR
Procedure, shortened: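 Recombinant CHO cells loaded with Fluo-3 AM or Calcium 3 dye in pH 7.4 buffer containing 1 mM probenecid, with 0.5% final DMSO. For agonism, compound is added directly. For inhibition, it is preincubated 15 min, or co-applied, before carbachol at EC80. FLIPR fluorescence (ex 488, em 540 nm) is recorded for 60 s.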

[5] = 100% = maximum response obtained with the Carbachol control, read-out: M1 Efficacy
[6] = 100% = maximum response obtained with the Carbachol control, read-out: M2 Efficacy
[7] = 100% = maximum response obtained with the Carbachol control, read-out: M3 Efficacy
[8] = 100% = maximum response obtained with the Carbachol control, read-out: M4 Efficacy
[9] = 100% efficacy = maximum response obtained with the Carbachol control

Structure (SMILES)	EC50 [1] [µM]	Emax [1, 5] [%]	EC50 [2] [µM]	Emax [2, 6] [%]	EC50 [3] [µM]	Emax [3, 7] [%]	EC50 [4] [µM]	Emax [4, 8] [%]	M1 Activity [1]	Emax [1, 9] [%]	M2 Activity [2]	Emax [2, 9] [%]	M3 Activity [3]	Emax [3, 9] [%]	M4 Activity [4]	Emax [4, 9] [%]
CC(C)(C)CCN1CCC2(CC[C@H](NC(=O)C3CC3)c3ccc(F)cc32)CC1 [compound 119]	< 2	25 to 100	< 2	25 to 100	> 5	< 25	< 2	25 to 100								
CCn1cc(C(=O)N[C@H]2CCC3(CCN(CCC(C)(C)C)CC3)c3ccccc32)cn1 [compound 115]	< 2	25 to 100	< 2	25 to 100	> 5	< 25	< 2	25 to 100								
CCN(C(=O)C1CCCO1)[C@H]1CCC2(CCN(CCC(C)(C)C)CC2)c2ccccc21 (stereo partly drawn) [compound 39]	> 5	25 to 100	> 5	< 25	> 5	< 25	< 2	25 to 100								
CCN(C(C)=O)[C@H]1CCC2(CCN(CCC(C)C)CC2)c2ccccc21 [compound 213]									++ (activity was measured to be from 2.0 μM to 5.0 μM)	25 to 100	+ (activity was measured to be greater than 5.0 μM)	< 25	+ (activity was measured to be greater than 5.0 μM)	< 25	+++ (activity was measured to be less than 2.0 μM)	25 to 100
C[C@H](C(=O)N[C@@H]1CCC2(CCN(CCC(C)(C)C)CC2)c2ccccc21)N1CCCC1=O [compound 157]	2 to 5	25 to 100	< 2	< 25	> 5	< 25	< 2	25 to 100								
CCC(=O)N(C)[C@H]1CCC2(CCN(CCC(C)(C)C)CC2)c2ccccc21 [compound 164]	< 2	25 to 100	> 5	< 25	> 5	< 25	< 2	25 to 100								
C[C@@H](O)CC(=O)N[C@@H]1CCC2(CCN(CCC(C)(C)C)CC2)c2ccccc21 [compound 139]	2 to 5	< 25	> 5	< 25	> 5	< 25	< 2	25 to 100								
CC(C)(C)CCN1CCC2(CC[C@H](NC(=O)C3CCCO3)c3ccccc32)CC1 (stereo partly drawn) [compound 31]	< 2	25 to 100	< 2	< 25	> 5	< 25	< 2	25 to 100								
C[C@@H](C(=O)N[C@H]1CCC2(CCN(CCC(C)(C)C)CC2)c2ccccc21)N1CCCC1=O [compound 137]	< 2	25 to 100	> 5	< 25	> 5	< 25	< 2	25 to 100								
CCN(C(=O)c1cscn1)[C@H]1CCC2(CCN(CCC(C)(C)C)CC2)c2ccccc21 [compound 10]	> 5	< 25	> 5	< 25	> 5	< 25	< 2	25 to 100								
CC(C)(C)OC(=O)N1CCC2(CC1)C[C@H](NC(=O)N1CCCC1)c1ccccc12 [compound 276]									+ (activity was measured to be greater than 5.0 μM)	< 25	+ (activity was measured to be greater than 5.0 μM)	< 25	+ (activity was measured to be greater than 5.0 μM)	< 25	+ (activity was measured to be greater than 5.0 μM)	< 25
CC(C)(C)CCN1CCC2(CCC(=O)c3ccccc32)CC1 [compound 173]	< 2	25 to 100	< 2	25 to 100	> 5	< 25	< 2	25 to 100								
